# Source: patent US9926267B2, “Covalent inhibitors of K-Ras G12C” (Araxes Pharma LLC, priority 2013, dated 2018)
# Target: T1, KRAS G12C 1-169, his-tagged protein, GDP-loaded (Homo sapiens, UniProt P01116, G12C)
# T1 construct: KRAS G12C 1-169, his-tagged protein, GDP-loaded
# Assay: Biochemical assay: covalent binding to KRAS G12C, measured by mass spectrometry
# Conditions: Binding activity determined at 2 hrs; Table 7b
# Experimental: Test compounds were prepared as 10 mM stock solutions in DMSO (Fisher cat#BP-231-100). KRAS G12C 1-169, his-tagged protein, GDP-loaded was diluted to 2 μm in buffer (20 mM Hepes, 150 mM NaCl, 1 mM MgCl2). Compounds were tested for activity as follows:
# Compounds were diluted to 50× final test concentration in DMSO in 96-well storage plates. Compound stock solutions were vortexed before use and observed carefully for any sign of precipitation. Dilutions were as follow: • For 100 μM final compound concentration, compounds were diluted to 5000 μM (5 μl 10 mM compound stock+5 μl DMSO and mixed well by pipetting. • For 30 μM final compound concentration, compounds were diluted to 1500 μM (3 μl 10 mM compound stock+17 μl DMSO) and mixed well by pipetting. • For […] final compound concentration, compounds were diluted to 500 μM (2 μl 10 mM compound stock+38 μl DMSO) and mixed well by pipetting. 49 μl of the stock protein solution was added to each well of a 96-well PCR plate (Fisher cat#1423027). 1 μl of the diluted 50× compounds were added to appropriate wells in the PCR plate using 12-channel pipettor. Reactions were mixed carefully and thoroughly by pipetting up/down with a 200 μl multi-channel pipettor. The plate was sealed well with aluminum plate seal, and stored in a drawer at room temperature for 2 hrs or 24 hrs. 5 μl of 2% formic acid (Fisher cat#A117) in DI H2O was then added to each well followed by mixing with a pipette. The plate was then resealed with aluminum seal and stored on dry ice until analyzed as described below.
# The above described assays were analyzed by mass spectrometry according to the following procedure:
# The MS instrument is set to positive polarity, 2 GHz resolution, and low mass (1700) mode and allowed to equilibrate for 30 minutes. The instrument is then calibrated, switched to acquisition mode and the appropriate method loaded.
# After another 30 minute equilibration time, a blank batch (i.e., buffer) is run to ensure equipment is operating properly. The samples are thawed at 37° C. for 10 minutes, briefly centrifuged, and transfer to the bench top. Wells A1 and H12 are spiked with 1 uL 500 uM internal standard peptide, and the plates centrifuged at 2000×g for 5 minutes. The method is then run and masses of each individual well recorded.
# The masses (for which integration data is desired) for each well are pasted into the platemap and exported from the analysis. Masses for the internal standards are exported as well. The data at 50 ppm is extracted for the +19 charge state, and identity of well A1 is assigned using the internal standard spike and integrated. Peak data is exported as a TOF list and the above steps are repeated individually, for the +20, 21, 22, 23, 24, and charge states.
# T1 sequence (P01116 1-169 isoform P01116-2 G12C): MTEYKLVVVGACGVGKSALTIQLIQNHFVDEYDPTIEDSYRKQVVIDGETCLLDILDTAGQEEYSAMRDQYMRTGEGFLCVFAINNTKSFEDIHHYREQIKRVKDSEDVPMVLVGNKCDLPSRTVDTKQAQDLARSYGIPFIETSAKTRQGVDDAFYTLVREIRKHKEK
row,SMILES,Binding %
1,"C=CC(=O)N1CC(N2CCN(C(=O)NCc3cc(Br)c(Cl)cc3O)CC2)C1 [Compound V-66, 4-(1-acryloylazetidin-3-yl)-N-(5-bromo-4-chloro-2-hydroxybenzyl) piperazine-1-carboxamide]",+ (+ indicates binding activity from 5% to 20%)

# Same assay, conditions: Binding activity determined at 24 hrs; Table 7a
row,SMILES,Binding %
1,"C=CC(=O)N1CCN(C2CCN(C(=O)CNc3cc(Cl)c(Cl)cc3O)C2)CC1 (centres unmarked) [Compound V-4, 1-(4-(1-(2-(4,5-dichloro-2-hydroxyphenyl-amino)acetyl)pyrrolidin-3-yl)piperazin-1-yl)prop-2-en-1-one]",+++ (+++ indicates binding activity greater than 25% and up to 50%)
2,"C=CC(=O)N1CCC(N2CCN(C(=O)CNc3cc(Cl)c(C)cc3O)CC2)C1 (centres unmarked) [Compound V-8, 1-(3-(4-(2-(5-chloro-2-hydroxy-4-methylphenyl-amino)acetyl)piperazin-1-yl)pyrrolidin-1-yl)prop-2-en-1-one]",++ (++ indicates binding activity greater than 15% and up to 25%)
3,"C=CC(=O)N1CC(N2CCN(CCNc3cc(Cl)c(Cl)cc3O)CC2)C1 [Compound V-15, 1-(3-(4-(2-(4,5-dichloro-2-hydroxyphenyl-amino)ethyl)piperazin-1-yl)azetidin-1-yl)prop-2-en-1-one]",+ (+ indicates binding activity from 5% to 15%)

# Same assay, conditions: Binding activity determined at 24 hrs; Table 8a
row,SMILES,Binding %
1,"C=CC(=O)N1CCN(C(=O)c2cc(-c3ccccc3Cl)c(Cl)cc2OC)CC1 [VI-1, 1-(4-(2′,6-dichloro-4-methoxybiphenyl-carbonyl)piperazin-1-yl)prop-2-en-1-one]",+ (+ indicates binding activity from 5% to 10%)
2,"C=CC(=O)N1CCN(C(=O)c2cc(I)c(Cl)cc2OC)CC1 [VI-2, 1-(4-(4-chloro-5-iodo-2-methoxybenzoyl)piperazin-1-yl)prop-2-en-1-one]",++ (++ indicates binding activity greater than 10% and up to 20%)
3,"C=CC(=O)N1CCN(C(=O)c2cc(-c3ccccc3Cl)c(Cl)cc2O)CC1 [VI-3, 1-(4-(2′,6-Dichloro-4-hydroxy-[1,1′-biphenyl]-3-carbonyl)piperazin-1-yl)prop-2-en-1-one]",++++ (++++ indicates binding activity greater than 30%)
4,"C=CC(=O)N1CCN(C(=O)c2cc(-c3cc(F)ccc3Cl)c(Cl)cc2OC)CC1 [VI-4, 1-(4-(2′,6-dichloro-5′-fluoro-4-methoxybiphenyl-carbonyl)piperazin-1-yl)prop-2-en-1-one]",++ (++ indicates binding activity greater than 10% and up to 20%)
5,"C=CC(=O)N1CCN(C(=O)c2cc(-c3cc(Cl)ccc3Cl)c(Cl)cc2OC)CC1 [VI-5, 1-(4-(2′,5′,6-trichloro-4-methoxybiphenyl-carbonyl)piperazin-1-yl)prop-2-en-1-one]",++++ (++++ indicates binding activity greater than 30%)
6,"C=CC(=O)N1CCN(C(=O)c2cc(-c3cc(Cl)ccc3Cl)c(Cl)cc2OC)CC1CO (centres unmarked) [VI-6, 1-(2-(hydroxymethyl)-4-(2′,5′,6-trichloro-4-methoxybiphenyl-carbonyl)piperazin-1-yl)prop-2-en-1-one]",++ (++ indicates binding activity greater than 10% and up to 20%)
7,"C=CC(=O)N1CCN(C(=O)c2cc(Cl)c(Cl)cc2O)CC1 [VI-8, 1-(4-(4,5-dichloro-2-hydroxybenzoyl)piperazin-1-yl)prop-2-en-1-one]",+ (+ indicates binding activity from 5% to 10%)
8,"C=CC(=O)N1CCN(C(=O)c2cc(Br)c(Cl)cc2O)CC1 [VI-9, 1-(4-(5-bromo-4-chloro-2-hydroxybenzoyl)piperazin-1-yl)prop-2-en-1-one]",+ (+ indicates binding activity from 5% to 10%)
9,"COc1cc(Cl)c(-c2ccccc2Cl)cc1C(=O)N1CCN(C(=O)/C=C/CN(C)C)CC1 [VI-10, (E)-1-(4-(2′,6-dichloro-4-methoxybiphenyl-carbonyl)piperazin-1-yl)-4-(dimethylamino)but-2-en-1-one]",+ (+ indicates binding activity from 5% to 10%)
10,"C=CC(=O)N1CCN(C(=O)c2cc(-c3ccccc3Cl)n[nH]2)CC1 [VI-11, 1-(4-(3-(2-chlorophenyl)-1H-pyrazole-5-carbonyl)piperazin-1-yl)prop-2-en-1-one]",+ (+ indicates binding activity from 5% to 10%)
11,"C=CC(=O)N1CCN(C(=O)c2ccc(Cl)c(-c3ccccc3Cl)c2)CC1 [VI-12, 1-(4-(2′,6-dichlorobiphenyl-carbonyl)piperazin-1-yl)prop-2-en-1-one]",+++ (+++ indicates binding activity greater than 20% and up to 30%)
12,"C=CC(=O)NC1CN(C(=O)c2cc(-c3ccccc3Cl)c(Cl)cc2O)C1 [VI-13, N-(1-(2′,6-dichloro-4-hydroxybiphenyl-carbonyl)azetidin-3-yl)acrylamide]",+ (+ indicates binding activity from 5% to 10%)
13,"C=CC(=O)N1CC(NC(=O)c2cc(-c3ccccc3Cl)[nH]n2)C1 [VI-14, N-(1-acryloylazetidin-3-yl)-3-(2-chlorophenyl)-1H-pyrazole-5-carboxamide]",+ (+ indicates binding activity from 5% to 10%)
14,"C=CC(=O)NC1CN(C(=O)c2cc(-c3ccccc3Cl)[nH]n2)C1 [VI-15, N-(1-(3-(2-chlorophenyl)-1H-pyrazole-5-carbonyl)azetidin-3-yl)acrylamide]",+ (+ indicates binding activity from 5% to 10%)
15,"C=CC(=O)N1CCN(C(=O)c2cc(-c3cccs3)[nH]n2)CC1 [VI-16, 1-(4-(5-(thiophen-2-yl)-1H-pyrazole-3-carbonyl)piperazin-1-yl)prop-2-en-1-one]",+ (+ indicates binding activity from 5% to 10%)
16,"C=CC(=O)N1CCN(C(=O)c2cc(-c3cc(Cl)ccc3Cl)c(Cl)cc2O)CC1 [VI-17, 1-(4-(2′,5′,6-trichloro-4-hydroxybiphenyl-carbonyl)piperazin-1-yl)prop-2-en-1-one]",++++ (++++ indicates binding activity greater than 30%)
17,"C=CC(=O)N1CCN(C(=O)c2csc(-c3ccccc3Cl)n2)CC1 [VI-18, 1-(4-(2-(2-chlorophenyl)thiazole-4-carbonyl)piperazin-1-yl)prop-2-en-1-one]",+ (+ indicates binding activity from 5% to 10%)
18,"C=CC(=O)N1CCN(C(=O)c2nc(-c3ccccc3Cl)cs2)CC1 [VI-19, 1-(4-(4-(2-chlorophenyl)thiazole-2-carbonyl)piperazin-1-yl)prop-2-en-1-one]",+ (+ indicates binding activity from 5% to 10%)
19,"C=CC(=O)N1CCN(C(=O)c2nc(-c3ccccc3Cl)sc2Cl)CC1 [VI-20, 1-(4-(5-chloro-2-(2-chlorophenyl)thiazole-4-carbonyl)piperazin-1-yl)prop-2-en-1-one]",+ (+ indicates binding activity from 5% to 10%)
20,"C=CC(=O)N1CCN(C(=O)c2cc(-c3ccccc3Cl)c[nH]2)CC1 [VI-21, 1-(4-(4-(2-chlorophenyl)-1H-pyrrole-2-carbonyl)piperazin-1-yl)prop-2-en-1-one]",++ (++ indicates binding activity greater than 10% and up to 20%)
21,"C=CC(=O)N1CCN(C(=O)c2nc(-c3ccccc3Cl)c(C)s2)CC1 [VI-22, 1-(4-(4-(2-chlorophenyl)-5-methylthiazole-2-carbonyl)piperazin-1-yl)prop-2-en-1-one]",+ (+ indicates binding activity from 5% to 10%)
22,"C=CC(=O)N1CCN(C(=O)c2cc(-c3ccccc3Cl)c(C)[nH]2)CC1 [VI-23, 1-(4-(4-(2-chlorophenyl)-5-methyl-1H-pyrrole-2-carbonyl)piperazin-1-yl)prop-2-en-1-one]",+++ (+++ indicates binding activity greater than 20% and up to 30%)
23,"CN(C)C/C=C/C(=O)N1CCN(C(=O)c2cc(-c3ccccc3Cl)c(Cl)cc2O)CC1 [VI-24, (E)-1-(4-(2′,6-dichloro-4-hydroxy-[1,1′-biphenyl]-3-carbonyl)piperazin-1-yl)-4-(dimethylamino)but-2-en-1-one]",++++ (++++ indicates binding activity greater than 30%)
24,"C=CC(=O)N1CCN(C(=O)c2cc(O)cc(-c3ccccc3Cl)c2)CC1 [VI-25, 1-(4-(2′-Chloro-5-hydroxy-[1,1′-biphenyl]-3-carbonyl)piperazin-1-yl)prop-2-en-1-one]",+++ (+++ indicates binding activity greater than 20% and up to 30%)
25,"C=CC(=O)N1CCN(C(=O)c2cc(-c3ccccc3Cl)ccc2O)CC1 [VI-26, 1-(4-(2′-chloro-4-hydroxybiphenyl-carbonyl)piperazin-1-yl)prop-2-en-1-one]",++ (++ indicates binding activity greater than 10% and up to 20%)
